Experimental findings from patent US20240316051A1, “A PHARMACEUTICAL COMBINATION AND USE THEREOF” (Ascentage Pharma (Suzhou) Co., Ltd., priority 2021, published 2024) are described below.

One test deals with Pfeiffer Cell line. Briefly: Cell proliferation, Pfeiffer cell line. In kind it is cell-based. Particulars: Homo sapiens, anti-proliferative IC50, Table 4A. The procedure: (§1) Analysis of Cell Proliferation:
(§2) To assess the effect of PRC2 inhibition on cell growth, cells were seeded in 96-well cell culture plates at a density of 2 000-3 000 cells/well in 200 μL of culture medium, and treated with serially diluted compounds for 7 days at 37° C. in an atmosphere of 5% CO2. Cell growth was evaluated by a […] WST-8 assay (Dojindo Molecular Technologies) using a Tecan Infinite M1000 multimode microplate reader (Tecan, Morrisville, NC). The WST-8 reagent was added to the plate, incubated for 1-4 h, and read at 450 nm. The readings were normalized to the DMSO-treated cells, and the IC50 was calculated by nonlinear regression analysis using GraphPad Prism 6 software

Test [1] concerns human B cell lymphoma cell KARPAS422. Briefly: Cell proliferation (WST-8), KARPAS422, 7 days. In kind it is cell-based. Particulars: KARPAS-422, 168 h, WST-8, Table 4A, read-out: Karpas Cell line. The procedure:
as §1, §2

A further test has as its target T1, EED (1-441)-His protein (Homo sapiens, UniProt O75530).
T1 construct: 20 nM EED (1-441)-His protein
Briefly: EED-H3K27Me3 peptide competition binding assay by AlphaScreen. Particulars: Table 4A, read-out: Alpha screen. In a few lines: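 EED(1-441)-His was preincubated 15 min with compound, then biotin-H3K27Me3(19-33) peptide added for 30 min; both were added as 20 nM solutions in 25 mM HEPES pH 8, 0.02% Tween-20, 0.5% BSA. Ni-chelate acceptor and streptavidin donor beads (10 μg/ml each final) were added for 1 h in the dark at RT. Signal read at 615 nm (680 nm excitation), normalised to controls and fitted to dose-response for IC50.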

Molecules are shown by their SMILES. pIC50: −log10 of the molar value.

T1 sequence (O75530 whole entry): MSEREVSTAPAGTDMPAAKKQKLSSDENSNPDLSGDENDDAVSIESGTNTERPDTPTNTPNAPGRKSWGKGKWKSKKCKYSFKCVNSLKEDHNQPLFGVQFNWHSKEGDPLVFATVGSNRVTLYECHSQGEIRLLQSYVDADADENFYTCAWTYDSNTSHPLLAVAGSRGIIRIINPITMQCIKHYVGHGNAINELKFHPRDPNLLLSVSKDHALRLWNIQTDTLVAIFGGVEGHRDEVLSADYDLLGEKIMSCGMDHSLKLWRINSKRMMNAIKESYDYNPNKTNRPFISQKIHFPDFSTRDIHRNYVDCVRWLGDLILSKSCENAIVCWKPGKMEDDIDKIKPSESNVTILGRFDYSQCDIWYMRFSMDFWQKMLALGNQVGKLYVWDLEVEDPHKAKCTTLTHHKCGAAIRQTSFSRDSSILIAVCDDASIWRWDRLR

Consider `O=C1c2ncn3c(NCc4c(F)ccc5c4CCO5)ncc(c23)-c2sccc2CN1C1CC1` [Compound 87, 4-cyclopropyl-11-(((5-fluoro-2,3-dihydrobenzofuran-4-yl)methyl)amino)-4,5-dihydro-3H-8-thia-2,4, 10,11a-tetraazacyclopenta[4,5]cycloocta[1,2,3-cd] inden-3-one], for which the pIC50 in the test with Pfeiffer Cell line is 10.74; in test [1], 8.06; at EED (1-441)-His protein, 7.95.
